Measurements published in patent EP3964196A1, “USE OF CHL[…] CETYLPYRIDINIUM CHLORIDE AS ANTIVIRAL AGENTS” (Ferton Holding S.A., priority 2020, dated 2022).

Test system: SARS-CoV-2
Test: Virucidal efficacy: 30sec incubation of SARS-CoV-2 with mouth rinsing solution, then standard plaque assay on Vero E6 cells
Format: cell-based, Severe acute respiratory syndrome coronavirus 2
Conditions: 1x10^6 pfu SARS-CoV-2 incubated with solution (2-fold diluted) for 30sec at 37°C; Dilution 4 analyzed on Vero E6; compared to negative control
Procedure: A mouth rinsing solution according to the invention (see example 1 below) and some of their individual active components were tested regarding their virucidal efficacy against the novel coronavirus SARS-CoV-2, in vitro. To evaluate if this procedure is sufficient to successfully inactivate SARS-CoV-2, in the following study 1x10^6 infectious SARS-CoV-2 particles were incubated with the solutions (dilution factor: 2) for 30sec. After a serial dilution the samples were submitted to a standard plaque assay to check for the presence of infectious virus particles post incubation with the different solutions.
Test solutions: • Example 1 (0.1% Chlorhexidine (CHX), 0.05% CPC, PEG-40 hydrogenated castor oil), according to the invention Comparative examples: • 0.1% CHX plus 0.05% CPC • 0.05% CPC • 0.1% CHX • 1.5% H2O2 • 0.5% H2O2 […]
The samples were mixed briefly by vortexing and incubated at 37°C for 30sec. […] Dilution 4 of each sample was analyzed in technical duplicates in a plaque assay. […]
The virucidal activity of example 1 and some of their individual components were investigated against the novel corona virus SARS-CoV-2 by a 30sec incubation of 1x10^6 pfu SARS-CoV-2 with the test substances, followed by a standard plaque assay. […] Medium", positive control, in column 3, each analyzed in technical duplicates.

Structure (SMILES)	infectious SARS-CoV-2 particles / number of plaques in the plaque assay
[H]/N=C(\N/C(=N/[H])NCCCCCCNC(=N)NC(=N)Nc1ccc(Cl)cc1)Nc1ccc(Cl)cc1 [0.1% CHX, Chlorhexidine]	no reduction compared to the negative control
OO [1.5% H2O2, Hydrogen peroxide]	no reduction compared to the negative control
